Activity calls are given as the source filed them. No cut-off for these calls is given here.

Series [1] deals with SH-SY5Y. The series can be described thus: Neuroprotective activity against CdCl2-induced toxicity in human SH-SY5Y cells assessed as cell viability at 25 uM preincubated for 2 hrs followed by CdCl2 challenge and measured after 24 hrs by CCK8 assay (reference value: 46.2 +/- 1.7%). The series is classed as functional. The settings on record: read-out: Activity. A general note: Tetrazolium dyes change colour on reduction, which living cells bring about.

Series [2] deals with SH-SY5Y. The series can be described thus: Neuroprotective activity against CdCl2-induced endoplasmic reticulum stress-mediated apoptosis in human SH-SY5Y cells assessed as downregulation of GRP78 protein expression at 25 uM preincubated for 2 hrs followed by CdCl2 challenge and measured after 24 hrs by Western blot analysis. The class given is functional, cell-based. A general note: A western blot detects proteins with antibodies after separation by electrophoresis.

For series [3], the system named is SH-SY5Y. The series can be described thus: Neuroprotective activity against CdCl2-induced apoptosis in human SH-SY5Y cells assessed as apoptosis rate at 25 uM preincubated for 2 hrs followed by CdCl2 challenge and measured after 24 hrs by annexin V/propidium iodide staining-based flow cytometric analysis (reference value: 73.2%). The series is classed as functional. (Flow cytometry measures light scatter and fluorescence of single cells or particles in a stream.)

The subject of series [4] is SH-SY5Y. The series can be described thus: Neuroprotective activity against CdCl2-induced endoplasmic reticulum stress-mediated apoptosis in human SH-SY5Y cells assessed as downregulation of cleaved caspase-12 protein expression at 25 uM preincubated for 2 hrs followed by CdCl2 challenge and measured after 24 hrs by Western blot analysis. The series is classed as functional, cell-based.

Series [5] has as its system SH-SY5Y. The series can be described thus: Induction of apoptosis in human SH-SY5Y cells at 25 uM after 24 hrs by annexin V/propidium iodide staining-based flow cytometric analysis relative to control. The class given is cell-based.
Series [6] concerns SH-SY5Y. The series can be described thus: Neuroprotective activity against CdCl2-induced endoplasmic reticulum stress-mediated apoptosis in human SH-SY5Y cells assessed as downregulation of cleaved caspase-3 protein expression at 25 uM preincubated for 2 hrs followed by CdCl2 challenge and measured after 24 hrs by Western blot analysis. The class given is functional, cell-based.

The test system of series [7] is SH-SY5Y. The series can be described thus: Neuroprotective activity against CdCl2-induced endoplasmic reticulum stress-mediated apoptosis in human SH-SY5Y cells assessed as downregulation of CHOP protein expression at 25 uM preincubated for 2 hrs followed by CdCl2 challenge and measured after 24 hrs by Western blot analysis. The class given is functional, cell-based.

As for `O=C1[C@@H]2CCC(=O)N2Cc2ccccc2N1CCCCN1CCN(c2ccccn2)CC1`, the viability at 25 µM in the series with SH-SY5Y [1] was found to be 66.2%.

As for `COc1cc2c(cc1OCc1ccccc1)CN1C(=O)CC[C@H]1C(=O)N2CCCCN1CCN(c2ccccn2)CC1`, the result in the series with SH-SY5Y [2], with SH-SY5Y [4], in the series with SH-SY5Y [6] and in the series with SH-SY5Y [7] was Active. The figures for the Activity in the series with SH-SY5Y [3] and in the series with SH-SY5Y [5] were 18.7% and 4.2 to 5%, respectively. In the series on SH-SY5Y [1], the viability at 25 µM was 68.6%.

For `O=C1Nc2ccc(Br)cc2CN2C(=O)CC[C@H]12`, in the series on SH-SY5Y [1], the viability at 25 µM came out at 60.4%.

Consider `COc1cc2c(cc1OCc1ccccc1)CN1C(=O)CC[C@H]1C(=O)N2`, for which the viability at 25 µM in the series with SH-SY5Y [1] came to 66.2%.

For `COc1cc2c(cc1OCc1ccccc1)CN1C(=O)CC[C@H]1C(=O)N2CCCCN1CCN(c2ncccn2)CC1`, in the series on SH-SY5Y [1], the viability at 25 µM is 62.2%.

Regarding `O=C1[C@@H]2CCC(=O)N2Cc2ccccc2N1CCCN1CCN(c2ncccn2)CC1`, the viability at 25 µM in the series with SH-SY5Y [1] came out at 51.3%.

In the case of `O=C1Nc2cc3c(cc2CN2C(=O)CC[C@@H]12)OCO3`, the viability at 25 µM with SH-SY5Y [1] is 59.2%.

In the case of `COc1cc2c(cc1O)CN1C(=O)CC[C@H]1C(=O)N2`, the viability at 25 µM in the series on SH-SY5Y [1] is 55.7%.

For `O=C1Nc2ccc(Cl)cc2CN2C(=O)CC[C@@H]12`, in the series on SH-SY5Y [1], the viability at 25 µM is 61.4%.

`O=C1Nc2ccccc2CN2C(=O)CC[C@@H]12`: the viability at 25 µM with SH-SY5Y [1] was 52.2%.

Regarding `Cc1ccccc1-c1ccc2c(c1)CN1C(=O)CC[C@@H]1C(=O)N2`, the viability at 25 µM in the series on SH-SY5Y [1] is 42.3%.

For the molecule `COc1cc2c(cc1OCc1ccccc1)CN1C(=O)CC[C@@H]1C(=O)N2`, in the series on SH-SY5Y [1], the viability at 25 µM is 60.4%.

In the case of `Cc1ccc(-c2ccc3c(c2)CN2C(=O)CC[C@@H]2C(=O)N3)cc1`, the viability at 25 µM in the series on SH-SY5Y [1] turned out to be 36.2%.

Turning to `O=C1Nc2ccc(Cl)cc2CN2C(=O)CC[C@H]12`, the viability at 25 µM in the series with SH-SY5Y [1] stood at 56.2%.

As to `O=C1Nc2ccccc2CN2C(=O)CC[C@H]12`, the viability at 25 µM in the series with SH-SY5Y [1] is 48.4%.

Take `O=C1[C@@H]2CCC(=O)N2Cc2ccccc2N1CCCCCN1CCN(c2ncccn2)CC1`: in the series on SH-SY5Y [1], the viability at 25 µM stood at 51.4%.

For `O=C1[C@@H]2CCC(=O)N2Cc2ccccc2N1CCCCCN1CCN(c2ccccn2)CC1`, the viability at 25 µM in the series on SH-SY5Y [1] was 59.2%.

For `O=C1[C@@H]2CCC(=O)N2Cc2ccccc2N1CCCCN1CCN(c2ncccn2)CC1`, the viability at 25 µM with SH-SY5Y [1] was 59.2%.

In the case of `O=C1[C@@H]2CCC(=O)N2Cc2cc(Br)ccc2N1CCCCN1CCN(c2ccccn2)CC1`, the viability at 25 µM in the series with SH-SY5Y [1] came to 62.4%.

Turning to `COc1cc2c(cc1O)CN1C(=O)CC[C@@H]1C(=O)N2`, the viability at 25 µM in the series on SH-SY5Y [1] worked out at 56.8%.

For `O=C1Nc2ccc(Br)cc2CN2C(=O)CC[C@@H]12`, the viability at 25 µM with SH-SY5Y [1] turned out to be 66.1%.

For the molecule `O=C1[C@@H]2CCC(=O)N2Cc2cc(Br)ccc2N1CCCCN1CCN(c2ncccn2)CC1`, in the series with SH-SY5Y [1], the viability at 25 µM came to 63.1%.

With `Cc1ccc(-c2ccc3c(c2)CN2C(=O)CC[C@H]2C(=O)N3)cc1`, in the series with SH-SY5Y [1], the viability at 25 µM is 33.9%.

In the case of `O=C1[C@@H]2CCC(=O)N2Cc2ccccc2N1CCCN1CCN(c2ccccn2)CC1`, in the series on SH-SY5Y [1], the viability at 25 µM was 56.7%.

Turning to `O=C1Nc2cc3c(cc2CN2C(=O)CC[C@H]12)OCO3`, the viability at 25 µM in the series with SH-SY5Y [1] amounted to 56.6%.

Consider `Cc1ccccc1-c1ccc2c(c1)CN1C(=O)CC[C@H]1C(=O)N2`, for which the viability at 25 µM in the series with SH-SY5Y [1] came out at 39.8%.

Values taken from ChEMBL document CHEMBL4229570, “Pyrrolo[2,1-c][1,4] benzodiazepine-3,11-diones protect SHSY-5Y cells from Cd-induced apoptosis involving suppression of endoplasmic reticulum stress” (Bioorg Med Chem, 2018).
